ChEMBL document CHEMBL5518224, “Rational Design of PARP1/c-Met Dual Inhibitors for Overcoming PARP1 Inhibitor Resistance Induced by c-Met Overexpression” (J Med Chem, 2024)

Key:
[1] = target: Poly [ADP-ribose] polymerase 1 (Homo sapiens, UniProt P09874); assay: Inhibition of PARP1 (unknown origin) using histone as substrate incubated for 45 mins by absorbance based analysis
[2] = target: T1, Hepatocyte growth factor receptor (Homo sapiens, UniProt P08581); assay: Inhibition of c-Met (unknown origin) by HTRF method
MDA-MB-231 = assay: Antiproliferative activity against human MDA-MB-231 cells harboring wild type BRCA and c-Met amplification assessed as inhibition of cell growth incubated for 7 days by MTT assay; assay type: functional, cell-based; settings: MDA-MB-231, 168 h
[3] = target: T1, Hepatocyte growth factor receptor; assay: Inhibition of c-Met (unknown origin) at 100 nM by HTRF method relative to control

Poly [ADP-ribose] polymerase 1, sequence (P09874 whole entry): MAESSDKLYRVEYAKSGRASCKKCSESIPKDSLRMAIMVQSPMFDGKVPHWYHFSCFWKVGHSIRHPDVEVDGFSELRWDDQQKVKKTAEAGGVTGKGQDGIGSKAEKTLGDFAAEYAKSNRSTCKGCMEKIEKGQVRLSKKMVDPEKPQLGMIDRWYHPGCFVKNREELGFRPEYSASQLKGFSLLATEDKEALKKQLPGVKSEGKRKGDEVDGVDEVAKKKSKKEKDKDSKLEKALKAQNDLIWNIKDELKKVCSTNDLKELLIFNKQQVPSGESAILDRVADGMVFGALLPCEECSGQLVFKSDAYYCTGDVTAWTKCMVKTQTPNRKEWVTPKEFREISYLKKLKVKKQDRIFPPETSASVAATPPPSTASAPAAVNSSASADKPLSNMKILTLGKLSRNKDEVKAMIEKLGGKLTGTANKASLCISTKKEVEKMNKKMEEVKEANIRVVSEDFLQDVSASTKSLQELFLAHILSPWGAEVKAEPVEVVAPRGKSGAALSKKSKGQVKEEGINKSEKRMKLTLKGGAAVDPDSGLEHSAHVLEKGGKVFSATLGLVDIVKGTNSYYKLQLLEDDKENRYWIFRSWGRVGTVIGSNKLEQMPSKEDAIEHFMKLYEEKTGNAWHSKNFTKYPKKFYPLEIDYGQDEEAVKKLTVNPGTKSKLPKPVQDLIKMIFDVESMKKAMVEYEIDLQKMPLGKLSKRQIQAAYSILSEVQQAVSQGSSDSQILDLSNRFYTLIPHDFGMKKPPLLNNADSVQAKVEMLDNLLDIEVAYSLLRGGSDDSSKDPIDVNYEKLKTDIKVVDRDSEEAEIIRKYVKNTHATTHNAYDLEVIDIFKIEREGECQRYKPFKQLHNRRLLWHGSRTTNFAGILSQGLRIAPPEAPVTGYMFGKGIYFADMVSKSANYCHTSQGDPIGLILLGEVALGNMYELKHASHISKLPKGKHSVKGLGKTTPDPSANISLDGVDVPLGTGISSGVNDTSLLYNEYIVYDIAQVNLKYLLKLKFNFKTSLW
T1 sequence (P08581 whole entry): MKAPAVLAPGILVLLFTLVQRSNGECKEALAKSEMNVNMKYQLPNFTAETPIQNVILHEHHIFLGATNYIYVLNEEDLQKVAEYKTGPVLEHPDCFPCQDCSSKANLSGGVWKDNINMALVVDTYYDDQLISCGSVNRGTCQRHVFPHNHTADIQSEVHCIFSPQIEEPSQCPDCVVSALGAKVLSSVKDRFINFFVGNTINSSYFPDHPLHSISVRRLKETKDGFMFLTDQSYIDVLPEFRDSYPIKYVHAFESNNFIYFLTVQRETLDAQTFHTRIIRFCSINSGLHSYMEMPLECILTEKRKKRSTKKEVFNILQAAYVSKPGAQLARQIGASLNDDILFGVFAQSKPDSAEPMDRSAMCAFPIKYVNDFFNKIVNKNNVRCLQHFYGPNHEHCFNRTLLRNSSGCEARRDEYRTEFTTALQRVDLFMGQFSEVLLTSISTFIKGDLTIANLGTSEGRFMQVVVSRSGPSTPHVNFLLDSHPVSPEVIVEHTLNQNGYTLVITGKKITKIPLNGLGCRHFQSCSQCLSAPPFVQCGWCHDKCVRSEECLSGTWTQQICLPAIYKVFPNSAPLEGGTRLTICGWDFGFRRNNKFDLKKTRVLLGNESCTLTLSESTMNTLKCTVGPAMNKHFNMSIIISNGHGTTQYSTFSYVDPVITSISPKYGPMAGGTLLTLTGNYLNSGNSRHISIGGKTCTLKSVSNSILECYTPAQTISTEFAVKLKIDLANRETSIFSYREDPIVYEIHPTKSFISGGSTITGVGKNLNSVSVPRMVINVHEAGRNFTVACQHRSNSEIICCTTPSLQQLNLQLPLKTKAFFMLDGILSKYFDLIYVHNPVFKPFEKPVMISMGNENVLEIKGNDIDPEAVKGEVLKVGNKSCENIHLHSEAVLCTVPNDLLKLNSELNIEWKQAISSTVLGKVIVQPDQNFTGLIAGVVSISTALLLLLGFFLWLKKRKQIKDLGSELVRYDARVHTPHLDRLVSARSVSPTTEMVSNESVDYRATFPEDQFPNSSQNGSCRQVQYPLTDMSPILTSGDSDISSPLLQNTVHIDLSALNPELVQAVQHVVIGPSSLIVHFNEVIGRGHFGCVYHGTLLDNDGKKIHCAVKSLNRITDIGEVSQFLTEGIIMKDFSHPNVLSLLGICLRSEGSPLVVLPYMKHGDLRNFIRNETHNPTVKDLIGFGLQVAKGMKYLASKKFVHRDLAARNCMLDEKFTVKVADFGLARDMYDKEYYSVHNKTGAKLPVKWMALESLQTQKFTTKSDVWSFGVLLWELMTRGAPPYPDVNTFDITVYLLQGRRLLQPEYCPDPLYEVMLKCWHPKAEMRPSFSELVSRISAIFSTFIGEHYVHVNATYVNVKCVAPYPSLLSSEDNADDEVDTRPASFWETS

Compound | IC50 [1] | IC50 [2] | IC50 (MDA-MB-231) | inhibition [3]
Cn1cc(-c2ccc(=O)n(CCOc3ccnc4cc(OCCN5CCN(C(=O)c6cc(Cc7n[nH]c(=O)c8ccccc78)ccc6F)CC5)ccc34)n2)cn1 | 3.7 nM | 18.2 nM | 1020 nM | –
Cn1cc(-c2ccc(=O)n(CCOc3ccnc4cc(N5CCC(NC(=O)c6cc(Cc7n[nH]c(=O)c8ccccc78)ccc6F)CC5)ccc34)n2)cn1 | 42 nM | 64.2 nM | – | –
Cn1cc(-c2ccc(=O)n(CCOc3ccnc4cc(N5CCC(NC(=O)c6cc(Cc7n[nH]c(=O)c8ccccc78)ccc6F)C5)ccc34)n2)cn1 (configuration not stated) | 91.7 nM | 33.1 nM | – | –
CC1CN(c2ccc3c(OCCn4nc(-c5cnn(C)c5)ccc4=O)ccnc3c2)CCN1C(=O)c1cc(Cc2n[nH]c(=O)c3ccccc23)ccc1F (racemic) | 1.1 nM | 29 nM | 5540 nM | –
O=C(c1cc(Cc2n[nH]c(=O)c3ccccc23)ccc1F)N1CCN(c2ccc3c(OCCn4nc(N5CCOCC5)ccc4=O)ccnc3c2)CC1 | 7.1 nM | 51.2 nM | – | –
Cn1cc(-c2ccc(=O)n(CCOc3ccnc4cc(NCCN5CCN(C(=O)c6cc(Cc7n[nH]c(=O)c8ccccc78)ccc6F)CC5)ccc34)n2)cn1 | 32.2 nM | – | – | < 50%
Cn1cc(-c2ccc(=O)n(CCOc3ccnc4cc(NC5CCN(C(=O)c6cc(Cc7n[nH]c(=O)c8ccccc78)ccc6F)CC5)ccc34)n2)cn1 | 4.7 nM | 126 nM | – | –
Cn1cc(-c2ccc(=O)n(CCOc3ccnc4cc(OC5CCN(C(=O)c6cc(Cc7n[nH]c(=O)c8ccccc78)ccc6F)CC5)ccc34)n2)cn1 | 2.1 nM | – | – | < 50%
Cn1cc(-c2ccc(=O)n(CCOc3ccnc4cc(N5CCN(C(=O)c6cc(Cc7n[nH]c(=O)c8ccccc78)ccc6F)C(C)(C)C5)ccc34)n2)cn1 | > 1000 nM | – | – | < 50%
Cn1cc(-c2ccc(=O)n(CCOc3ccnc4cc(NC5CCN(C(=O)c6cc(Cc7n[nH]c(=O)c8ccccc78)ccc6F)C5)ccc34)n2)cn1 (configuration not stated) | 5.8 nM | 42.6 nM | – | –

The next lines start with the values.

IC50 [1] | IC50 [2] | IC50 (MDA-MB-231) | inhibition [3] | Compound
1.1 nM | 37.7 nM | 1730 nM | – | O=C(c1cc(Cc2n[nH]c(=O)c3ccccc23)ccc1F)N1CCN(c2ccc3c(OCCn4nc(-c5ccccc5)ccc4=O)ccnc3c2)CC1
0.9 nM | – | – | < 50% | O=C(c1cc(Cc2n[nH]c(=O)c3ccccc23)ccc1F)N1CCN(c2ccc3c(OCCn4ncccc4=O)ccnc3c2)CC1
0.12 nM | 30 nM | 230 nM | – | Cn1cc(-c2ccc(=O)n(CCOc3ccnc4cc(N5CCN(C(=O)c6cc(Cc7n[nH]c(=O)c8ccccc78)ccc6F)CC5)ccc34)n2)cn1
7.3 nM | – | – | < 50% | O=C(c1cc(Cc2n[nH]c(=O)c3ccccc23)ccc1F)N1CCN(c2ccc3c(OCCn4nc(-c5ccc(C(F)(F)F)cc5)ccc4=O)ccnc3c2)CC1
